Laboratory results from patent US9605047B2, “Compositions and methods for treating hypertension” (The Brigham and Women's Hospital, Inc., priority 2012, dated 2017).

Key:
[1] = biological target: T1, ETB cysteinyl thiols (region containing Cys405) (Homo sapiens, UniProt P24530); assay: Western analysis to detect ETB disulfide bond formation in HPAECs; format: cell-based; settings: aldosterone 10^−7 mol/L 24 h or H2O2 200 μmol/L 20 min
T1 construct: endogenous in cells; host or cells: HPAECs (Lonza)
T1 sequence (P24530 27-442): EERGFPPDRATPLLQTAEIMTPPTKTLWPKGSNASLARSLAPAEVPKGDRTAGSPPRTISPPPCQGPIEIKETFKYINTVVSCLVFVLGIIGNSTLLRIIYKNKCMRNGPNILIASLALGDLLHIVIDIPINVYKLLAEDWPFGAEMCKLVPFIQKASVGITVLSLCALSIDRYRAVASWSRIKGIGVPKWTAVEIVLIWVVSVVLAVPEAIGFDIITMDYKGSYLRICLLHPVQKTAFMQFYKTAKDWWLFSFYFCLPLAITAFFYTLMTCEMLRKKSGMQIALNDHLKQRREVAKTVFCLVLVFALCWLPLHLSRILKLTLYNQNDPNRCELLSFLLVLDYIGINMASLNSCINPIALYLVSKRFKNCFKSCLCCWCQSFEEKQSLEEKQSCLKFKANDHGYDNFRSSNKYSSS
Method: Western analysis to detect ETB disfulfide bond formation. Western analysis to detect ETB disulfide bond formation was performed as described previously.^7 Briefly, protein extracts from cells were lysed in alkylating buffer containing 0.1 M Tris-HCL, pH 6.8, 1% SDS, 100 mM iodoacetamide, and 100 mM N-ethylmaleimide, and sonicated on ice for 5 min followed by a 30-min incubation at 25° C. Alkylated proteins were then precipitated with acetone. Proteins were resuspended in 50 μl of 0.1 M Tris-HCl, pH 7.4, 1% SDS; and disulfides were reduced with 5 mM tris(2-carboxyethyl)phosphine hydrochloride (TCEP). Following a 20-min incubation at 25° C., TCEP was removed with a Micro Bio-Spin™ column 6 (Bio-Rad), and 1% SDS was added to the eluant. The cysteines previously participating in a disulfide bond, now reduced, were labeled with 1 mM polyethylene glycol-conjugated maleimide (molecular mass 10 kDa) (Fluka). After a 1-h incubation at 25° C., proteins were precipitated with acetone, resuspended in 50 μl of non-reducing SDS electrophoresis buffer, and boiled for 10 min. Protein samples were then size-fractionated electrophoretically using SDS-PAGE, and transferred to a polyvinylidene fluoride membrane. […]

[2] = system: Sprague-Dawley rats; assay: Monocrotaline (MCT) induction of PAH versus vehicle control; format: in vivo, rat
Method: (§1) Animal model of PAH. Male Sprague-Dawley rats (age 12-14 weeks; Charles River Laboratories) were handled in accordance with US National Institutes of Health guidelines, and all procedures were approved by the local committee at Brigham and Women's Hospital, Harvard Medical School. All surgeries were performed under ketamine/xylazine anesthesia. For the monocrotaline (MCT) model of PAH, rats were fed standard chow and treated with a 0.5 ml intraperitoneal injection of MCT (50 mg/ml) (Sigma-Aldrich) or 0.9% saline as control. Rats were randomized to spironolactone (25 mg/kg/d) (Henry Schein) or vehicle added to the drinking water. For the prevention study, treatment with spironolactone began immediately following administration of MCT and continued for 23-25 days until hemodynamic and tissue analyses were performed. For the reversal study, a second experiment was performed in which rats were randomized to spironolactone or vehicle that was initiated 14 days following the administration of MCT and continued until hemodynamic and tissue analyses were performed 10 days later.
(§2) Aldosterone and ET-1 levels. […] In selected experiments, cells were pre-treated for 6 h with BQ-788 (1.5 μM) (Sigma-Aldrich) to inhibit the ETB receptor. Aldosterone levels were measured in the medium of cells grown in phenol-free EGM-2 medium supplemented with charcoal-stripped serum, by enzyme immunoassay according to the manufacturer's instructions (Cayman). Results were standardized to cell protein concentration. Levels of aldosterone and ET-1 from plasma and whole lung tissue were measured by enzyme immunoassay according to the manufacturer's instructions (Cayman).
Echocardiography. Transthoracic two-dimensional, M-mode, and Doppler imaging were performed in rats using a Vevo 2010 ultrasonographic system with a 15-MHz transducer. M-mode and Doppler tracings were acquired at a sweep speed of 200 mm/s following optimization of endocardial visualization and spectral display of Doppler profiles as described previously.^3 M-mode measurements of the right ventricular free-wall thickness were measured in the parasternal short-axis view just below the levels of the aortic valve, as described previously and in accordance to recommendations on M-mode measurement of the RV by the American Society of Echocardiography.^4 All studies were performed by a cardiologist and experienced sonographer who was blinded to the treatment group and was responsible for image analysis.
(§3) Right heart catheterization. An incision was made in the anterior triangle of the right neck, and a dissection was performed to expose the right internal jugular vein. A 0.04×0.023 in.-sized polyvinylchloridine catheter with a curved end was flushed with heparinized saline and connected to a Grass pressure transducer and Grass model 79 polygraph. A 4.0-proline suture was used to achieve hemostasis at the distal end of the jugular vein prior to insertion of the catheter. The tube was advanced and RV systolic pressure was recorded, which was assumed to be equal to PASP in the setting of a normal pulmonic valve.^3 All right heart catheterizations were performed within 10 min of echocardiography and both procedures were completed within 30 min.

[3] = system: rats with SU-5416/hypoxia-induced PAH; assay: SU-5416/hypoxia-induced PAH, prevention study with eplerenone; format: in vivo, rat; settings: 21 days
Method: (§4) Sections were stained with a Gomori's Trichrome Staining Kit according to the manufacturer's instruction (Fischer Scientific). Image J™ software (NIH) was used to measure the per cent perivascular collagen deposition of muscularized arterioles with a diameter of 20-50 μm by subtracting the area of the lesser curvature from the greater curvature and dividing by the lesser curvature×100. Collagen was also assessed in tissue sections using Picrosirius Red Stain Kit according to the manufacturer's instruction (Polysciences). Lung sections were visualized under polarized light using an Olympus BX51™ microscope and images were acquired by the Picture Taker™ software package.
as §3
(§5) Left heart catheterization and hemodynamics. Following completion of the right heart catheterization, a deep neck dissection was performed to identify the right carotid artery. Without disrupting the carotid sinus or vagus nerve, a cross-clamp was applied to the proximal and distal aspects of the carotid artery. A high fidelity Millar catheter (Millar Instruments, Inc.) was inserted into the carotid artery, the distal clamp was released, and the catheter was advanced past the aortic arch to record central aortic blood pressure. The catheter was then advanced across the aortic valve and left ventricular end-diastolic pressure (LVEDP) were recorded. Cardiac index (CI) was derived from pressure-volume loop analysis as described previously.^5 The pulmonary vascular resistance index was calculated as [(mean pulmonary artery pressure-LVEDP)/CI)] and systemic vascular resistance index was calculated as [(mean arterial pressure-mean right atrial pressure)/CI].

[4] = system: HPAECs; assay: Aldosterone levels in HPAEC culture medium by enzyme immunoassay; format: cell-based, human; settings: pioglitazone 50 μM, 24 h
[5] = system: Sprague-Dawley rats with MCT-induced PAH; assay: MCT model of PAH, prevention study (spironolactone started at time of MCT injection); format: in vivo, rat
Method: as §1, §2
NO. metabolites. Nitrite (NO2^−) and nitrate (NO3^−) were measured in cell culture medium containing 2% fetal bovine serum and L-arginine (1 mmol/l) (Sigma-Aldrich) by 1(H)-naphthotriazole fluorescence (Cayman) as previously reported.^1 To measure NO2^− levels in whole lung tissue, lung specimens were harvested from rats and snap frozen in liquid nitrogen. Samples were thawed, homogenized in PBS (pH 7.4), and centrifuged at 14,000×g at 4° C. for 20 min. The supernatant was ultrafiltered using a 30 kDa molecular weight filter (Millpore), and the eluant was used to measure NO2^− levels according to manufacturer's instructions (Cayman).
Lung tissue histology. Rat lung vessels were perfused with saline through the pulmonary artery and inflated with 10% phosphate-buffered formalin at a pressure of 20 cm H2O through the trachea as described previously.^2 After fixation for 24 h at 4° C., the lung tissue was processed and embedded in paraffin using a Hypercenter™ XP System and Embedding Center (Shandon, Pittsburg, Pa.). The paraffin-embedded lung tissue was cut into 5-μm sections. Hematoxylin and eosin staining was performed according to methods published previously.^3 The 3,3′-diaminobenzidine substrate method was used for smooth muscle α-actin immunohistochemical staining. The number of muscularized arteries with a diameter of 20-50 μm located distal to terminal bronchioles were counted in 20 consecutive fields (100×) per section,^2 and the cross-sectional area was assessed using Image J™ software (NIH).
as §4
Echocardiography. […]

[6] = system: HPAECs; assay: Amplex Red assay of hydrogen peroxide levels in HPAECs; format: cell-based, human; settings: aldosterone-treated HPAECs coincubated with spironolactone (10 μM), 24 h; n=3
Method: Human pulmonary artery endothelial cells (HPAECs) (Lonza) (male donors) were grown to confluence using phenol-free EGM-2 medium supplemented with 5% fetal bovine serum at 37° C., 5% CO2. Cells were passaged twice-weekly using 0.5% trypsin/EDTA, and experiments were performed on cells from passages 4-10. Aldosterone (Steraloids) and ET-1 (1-100 nM) (Sigma-Aldrich) were dissolved in dimethylsufloxide (10 nmol/L) and deoxygenated water, respectively, which served as vehicle controls. Cells were treated with aldosterone (10^−−10^−7 mol/L) for 24 h and in selected experiments co-incubated with the mineralocorticoid receptor inhibitor spironolactone (10 μM/l) (Sigma-Aldrich).

[7] = system: Sprague-Dawley rats with MCT-induced PAH; assay: MCT model of PAH, reversal study (spironolactone started 14 days after MCT); format: in vivo, rat
Method: as §1, §4, §3, §5

[8] = system: ETB-dependent NO. generation in HPAECs; assay: NO. metabolites (NO2−, NO3−) in ET-1-stimulated HPAECs; format: cell-based, human
Method: Cell culture and treatments. Human pulmonary artery endothelial cells (HPAECs) (Lonza) (male donors) were grown to confluence using phenol-free EGM-2 medium supplemented with 5% fetal bovine serum at 37° C., 5% CO2. Cells were passaged twice-weekly using 0.5% trypsin/EDTA, and experiments were performed on cells from passages 4-10. Aldosterone (Steraloids) and ET-1 (1-100 nM) (Sigma-Aldrich) were dissolved in dimethylsufloxide (10 nmol/L) and deoxygenated water, respectively, which served as vehicle controls. Cells were treated with aldosterone (10^−−10^−7 mol/L) for 24 h and in selected experiments co-incubated with the mineralocorticoid receptor inhibitor spironolactone (10 μM/l) (Sigma-Aldrich).

[9] = rats with MCT-induced PAH vs vehicle
[10] = rats with MCT-induced PAH vs vehicle, 25 days
[11] = spironolactone 25 mg/kg/d in MCT-PAH rats
[12] = spironolactone 25 mg/kg/d from day 14

## OO [H2O2, hydrogen peroxide]
[1]
  ETB disulfide bond formation (bands at 70 kDa and 90 kDa): de novo formation of one or two disulfide bonds

## C[C@H]1C(=O)O[C@@H]2CCN3CC=C(COC(=O)[C@](C)(O)[C@]1(C)O)[C@H]23 [MCT, monocrotaline]
[2]; MCT rat model of PAH
  increase in plasma ET-1 levels: 3 fold
[2]; MCT-treated rats vs vehicle control 0.58±0.05, n=6
  right ventricular (RV) free-wall thickness: 1.1±0.05 mm
[2]; MCT-treated rats vs vehicle control 28.3±2.7, right heart catheterization, n=6
  pulmonary artery systolic pressure (PASP): 89.3±5.3 mm Hg
[2]; MCT-treated rats vs vehicle control 35.4±2.6, echocardiography, n=6
  pulmonary artery (PA) flow acceleration time (PAAT): 14.1 ± 1.2 ms
[2]; [9]
  increase in aldosterone levels in lung tissue: 172%
  increase in aldosterone levels in plasma: 406%
[2]; [10]
  increase in ET-1 levels in lung homogenates: 174%
  increase in ET-1 levels in plasma: 286%

## COC(=O)[C@@H]1CC2=CC(=O)CC[C@]2(C)[C@@]23O[C@@H]2C[C@@]2(C)[C@@H](CC[C@@]24CCC(=O)O4)[C@H]13 [eplerenone]
[3]; eplerenone 0.6 mg/1 gm standard chow, n=5
  decrease in perivascular collagen: 67%
[3]; eplerenone in chow
  CI: without significantly influencing
  LVEDP: without significantly influencing
  MAP: without significantly influencing
  SVRi: without significantly influencing
  body weight: without significantly influencing
  heart rate: without significantly influencing
[3]; eplerenone in chow, vs SU-5416/hypoxia 64.6±21.4, p=0.18, n=3-4
  PVRi: 43.9±8.7 mm Hg*min*gm/ml
[3]; eplerenone in chow, vs SU-5416/hypoxia 80.5±4.9, p=0.048, n=5
  PASP: 61.5±6.5 mm Hg

## CCc1ccc(CCOc2ccc(CC3SC(=O)NC3=O)cc2)nc1 (stereo not drawn) [pioglitazone]
[4]
  increase in aldosterone levels compared to V: 365%

## CC(=O)S[C@@H]1CC2=CC(=O)CC[C@]2(C)[C@H]2CC[C@@]3(C)[C@@H](CC[C@@]34CCC(=O)O4)[C@H]12 [spironolactone]
[5]; [11]
  body weight: without significantly decreasing plasma ET-1 levels or influencing
  left ventricular end-diastolic pressure (LVEDP): without significantly decreasing plasma ET-1 levels or influencing
  mean arterial pressure (MAP): without significantly decreasing plasma ET-1 levels or influencing
  plasma ET-1 levels: without significantly decreasing
[5]; spironolactone 25 mg/kg/d in drinking water, 23-25 days, vs V-treated PAH 89.3±5.2, n=6
  PASP: 69.5±5.4 mm Hg
[5]; spironolactone 25 mg/kg/d vs V-treated rats with PAH, n=4
  decrease in perivascular collagen deposition (Gomori's trichrome): 77%
[5]; spironolactone 25 mg/kg/d, vs V-treated PAH 0.43±0.07, p=0.32, n=5
  RV weight: 0.35±0.04 RV weight/LV septum weight
[5]; spironolactone 25 mg/kg/d, vs V-treated PAH 1.07±0.05, n=6
  RV free-wall thickness: 0.86±0.03 mm
[5]; spironolactone 25 mg/kg/d, vs V-treated PAH 14.1±1.2, n=6
  PAAT: 22.3 ± 2.2 ms
[5]; spironolactone 25 mg/kg/d, vs V-treated PAH 14.3±0.7, n=5
  cross-sectional luminal area of vessels: 35.4±1.9 % cross sectional area
[5]; spironolactone 25 mg/kg/d, vs V-treated PAH 77.7±6.3, n=5
  number of α-actin-stained muscularized distal pulmonary arterioles: 59.7±0.4 muscularized pulmonary arterioles/20 high powered fields
[5]; spironolactone 25 mg/kg/d, vs V-treated PAH 506±86, n=4
  nitrite (NO2^−) in lung tissue specimens: 759±55 μM/μg protein
[6]
  abrogation of aldosterone-induced H2O2 accumulation: 56%
[7]; [12]
  LVEDP: without changes
  MAP: without changes
  cardiac index (CI): without changes
  heart rate: without changes
  indexed systemic vascular resistance (SVRi): without changes
[7]; spironolactone 25 mg/kg/d from day 14, vs V-treated PAH 35.9±3.2, n=4
  indexed pulmonary vascular resistance (PVRi): 21.5±3.2 mm Hg*min*g/ml
[7]; spironolactone 25 mg/kg/d from day 14, vs V-treated PAH 60.3±5.2, n=6
  PASP: 39.5±4.1 mm Hg
[7]; spironolactone 25 mg/kg/d from day 14 for 10 days vs V-treated PAH, n=6
  decrease in levels of perivascular collagen: 71%
[8]; coincubation with spironolactone 10 μM, HPAECs
  NO2^− levels in aldosterone-treated, ET-1-stimulated cells: restored
[8]; spironolactone coincubation in aldosterone-treated cells stimulated with ET-1, n=3
  increase in NOx levels: 87%
